# From patent publication US20190381180A1, “HYBRID CARRIERS FOR NUCLEIC ACID CARGO” (CureVac AG, priority 2016, published 2019)
# Tests used:
# [1] = system: HepG2 cells (human liver carcinoma cell line); assay: Transfection efficiency on HepG2 cells in vitro (GpLuc luminescence in supernatant); format: cell-based; conditions: GpLuc mRNA, 24 h (FIG. 2A)
# Description: This example describes the evaluation of the effect of different polymer-lipid formulations on transfection efficiency on HepG2 cells (human liver carcinoma cell line). As a read-out for transfection efficiency, GpLuc mRNA (SEQ ID NO:14) was used as a cargo.
# Successful transfection with the cargo leads to the translation of the luciferase protein and to a secretion of Gp luciferase protein into the cell culture supernatant.
# A volume of 0.2 mL HepG2 cells (10.000 cells) were seeded in a 96 well tissue culture plate. After removing the medium from each well, 100 μL RPMI 1640 medium (with 1% Penicillin and 1% Streptomycin, 1% L-Glutamin) was added to each well. Afterwards, HepG2 cells were transfected with 100 μL transfection mix (in triplicates) of polymer-lipid mRNA complexes (prepared according to Example 3) and respective controls (in triplicates), and cells were incubated at 37° C. and 5% CO2 for 90 minutes. […] Twenty-four hours post transfection, 10 μL of supernatant of each well was extracted and used for further luminescence analysis (see below).
# A volume of 10 μL supernatant was transferred to a 96 well plate for GpLuc measurement. […] A volume of 100 μL coelenterazine working solution was used as a substrate for GpLuc and measured after 5 seconds in a commercially available microplate reader.
# Sol8 cells = assay: Transfection of Sol8 muscle cells in vitro; format: cell-based, Mus musculus; conditions: very small amount of lipid, in combination with low- and high-charge ratio complexes
# Description: A volume of 10 μL supernatant was transferred to a 96 well plate for GpLuc measurement. Then, coelenterazine working solution (100 μM) was prepared (1 mL coelenterazine stock solution (4.72 mM in EtOH) in 49 mL phosphate buffered saline supplemented with 5 mM NaCl, pH 7.2). A volume of 100 μL coelenterazine working solution was used as a substrate for GpLuc and measured after 5 seconds in a commercially available microplate reader.
# As a read-out for transfection efficiency, […] mRNA (SEQ ID:NO 15) was used as a cargo. A successful transfection with the cargo leads to the translation of the luciferase protein and to a secretion of Gp luciferase protein into the cell culture supernatant.
# For a subset on hydrogel, a volume of 0.2 mL Sol8 cells (20.000 cells) were seeded in 96 well glass bottom plates (Softwell Hydrogel coated with collagen (elasticity E=12 kPa)). For another subset without hydrogel, a volume of 0.2 mL with 10.000 Sol8 cells per well were seeded in a 96 well glass bottom plates.
# After removing the medium from each well, 100 μL DMEM medium (with 2% horse serum) was added to each well. […] Twenty-four hours post transfection, 10 μL of supernatant of each well was extracted and used for further luminescence analysis, which was performed as described in Example 5.
compound,measurement,setting,value
"CCCCC/C=C\C/C=C\CCCCCCCCC1(CCCCCCCC/C=C\C/C=C\CCCCC)OCC(CCN(C)C)O1 (stereo not drawn) [KC2, 2,2-dilinoleyl-4-(2-dimethylaminoethyl)[1,3]-dioxolane]",transfection efficiency compared to PB83 polymer alone,"[1]; combination with polymer PB83, high-charge complexes (N/P 4), 1 and 2 nmol/μg RNA lipid",this effect was observable
"CCCCC/C=C\C/C=C\CCCCCCCCC(CCCCCCCC/C=C\C/C=C\CCCCC)OC(=O)CCCN(C)C [MC3, (6Z,9Z,28Z,31Z)-heptatriaconta-6,9,28,31-tetraen-19-yl-4-(dimethylamino)butanoate]",transfection efficiency compared to PB83 polymer alone,"[1]; combination with polymer PB83, low charge complexes (N/P 0.7), 0.4 and 1 nmol/μg RNA lipid",increase in transfection efficiency
"CCCCCCCC/C=C\CCCCCCCC(=O)OCC(C[N+](C)(C)C)OC(=O)CCCCCCC/C=C\CCCCCCCC.[Cl-] (stereo not drawn) [N-[1-(2,3-dioleoyloxy)propyl]-N,N,N-trimethylammonium chloride]",increase of expression levels in Sol8 cells,Sol8 cells,effective
